Assay results from BindingDB's records for doi:10.1111/j.1747-0285.2010.01010.x (University of Washington, 2010).

target: Thymidylate synthase (Homo sapiens, UniProt P04818); assay: Tritium Release Assay; conditions: pH 7.5; 4 °C
Sequence (P04818 whole entry): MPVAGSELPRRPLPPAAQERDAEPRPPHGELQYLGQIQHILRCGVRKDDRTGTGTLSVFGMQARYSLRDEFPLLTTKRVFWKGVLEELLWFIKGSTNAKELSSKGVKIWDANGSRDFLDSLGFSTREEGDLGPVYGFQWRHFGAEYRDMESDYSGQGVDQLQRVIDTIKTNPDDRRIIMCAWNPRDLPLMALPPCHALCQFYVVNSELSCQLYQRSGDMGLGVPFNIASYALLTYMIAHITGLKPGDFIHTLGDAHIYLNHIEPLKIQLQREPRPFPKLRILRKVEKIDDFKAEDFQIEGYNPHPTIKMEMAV

| Compound | IC50 | Kd |
| --- | --- | --- |
| CC(OC(=O)c1cc2occc2n1C)C(=O)NCc1cccs1 (stereo not given) [MV1574] | > 500 µM |  |
| Cc1cc(C(=O)CSc2nnc(N)s2)c(C)n1Cc1ccco1 [MV1588] | 115 µM |  |
| CCOC(=O)c1cc2occc2n1CC(=O)N1CCc2ccccc21 [MV1576] | 140 µM |  |
| CCOC(=O)c1cc2oc(C)cc2n1CC#N [MV1578] | > 500 µM |  |
| Cc1c(C(=O)NCCc2cccs2)nnn1-c1ccccc1 [MV1555] | 30 µM | 5 µM |
| CC(=NNC(=O)Cc1c(C)[nH]c2ccc(C)cc12)c1cccs1 [MV1561] | 160 µM |  |

Further lines, results first:

| IC50 | Kd | Compound |
| --- | --- | --- |
| 70 µM | 1 µM | CCc1ccc(/C=N/NC(=O)c2c[nH]c3ccccc23)s1 [MV1565] |
| 115 µM |  | O=C(NCc1cccs1)c1nc(-c2ccccc2)no1 [MV1586] |
| > 500 µM |  | Cc1onc(-c2ccccc2)c1C(=O)NCc1cccs1 [MV1581] |
| 240 µM |  | O=C(O)c1ccc(/N=C/c2ccc(-c3cccs3)s2)cc1 [MV1556] |
| 160 µM |  | CCN1C(=O)c2cccc3c(NC(=O)c4cccs4)ccc1c23 [MV1554] |
| 70 µM | 2 µM | O=C(NCCc1c[nH]c2ccccc12)/C(=C\c1cccs1)NC(=O)c1cccs1 [MV1570] |
